Test system: VSV
Assay: microbe, parasite or virus in culture
Assay type: cell-based
Conditions: Vesicular stomatitis virus

**Q.** Which EC50 (read-out: EC50 (95% C.I.)) does the source give for `CC(C)c1ccc(CCN2C(=O)/C(=C/c3ccc(-c4ccc(C(=O)O)c(O)c4)o3)SC2=S)cc1` [Compound 9d, (Z)-2-hydroxy-4-(5-((3-(4-isopropylphenethyl)-4-oxo-2-thioxothiazolidin-5-ylidene)methyl)furan-2-yl)benzoic acid] here?
**A.** The EC50 was 0.0132 µM.

**Q.** And the EC90 (read-out: EC90 (95% C.I.))?
**A.** The EC90 was 0.117 µM.

— article PMC6285983, “Novel broad spectrum virucidal molecules against enveloped viruses” (PLoS ONE, 2018)
